Literature values in patent publication US20240041828A1, “Combination Therapeutics Comprising Nrf2 Agonists and Antivirals for Treating Viral Infections” (The Regents of the University of California, priority 2022, published 2024).
Structures can show the parent of a compound that is named as a salt. Where two headings read alike, the source gives them in different places.

Tested on: human mammalian cells
Conditions: cited from earlier work

SMILES | concentration shown to be physiologically relevant, efficacious and non-cytotoxic | concentration shown to be physiologically relevant, efficacious and non-cytotoxic (human mammalian cells)
COC(=O)/C=C/C(=O)OC [DMF, Dimethyl fumarate] | 0.1-100 μM | 
COC1=C(OC)C(=O)C(CCCCCCCCCC[P+](c2ccccc2)(c2ccccc2)c2ccccc2)=C(C)C1=O.CS(=O)(=O)[O-] [Mito-MES, 10-(4,5-dimethoxy-2-methyl-3,6-dioxo-1,4-cyclohexadienyl) decyl triphenylphosphonium methanesulfonate] |  | 10-1000 nM
